This is an account of results in patent publication US5668168A, “1,2-dithiin antiinfective agents” (Shaman Pharmaceuticals, Inc., priority 1995, dated 1997).

In data set [1] the test system is Cryptococcus neoformans ATCC 36556. Kind of data set: In vitro susceptibility, microdilution broth MIC, C. neoformans. As to conditions: ATCC36556, 48 h. In kind it is cell-based. The method, then: (§1) MIC tests were performed by a microdilution broth assay. The fungi tested were Candida albicans ATCC 10259 and strain B311, Cryptococcus neoformans ATCC 36556, Aspergillus fumigatus ATCC 13073, and Trichophyton rubrum ATCC 18762. The yeasts were propagated on yeast morphology agar, while the filamentous fungi were grown on Sabouraud's agar. All tests were performed in Sabouraud's broth in 96-well microliter plates, with compounds diluted serially, then inoculated with 2×10^4 cfu/ml for C. albicans, 4×10^4 cfu/ml for C. neoformans, 1×10^3 cfu/ml for A. fumigatus, and 1×10^3 cfu/ml for T. rubrum (all expressed as final concentrations). Plates were incubated at 30° C. for 48 h for all fungi except T. rubrum, which was incubated for 5 days. MIC's were read as the lowest concentration completely inhibiting growth. After MIC endpoints were determined, 50 ul portions were removed and plated on yeast morphology agar to detect viable organisms, and were incubated at 30° C. for 48 h. The MFC was determined to be the well with the lowest concentration resulting in no growth.
(Dilution methods test growth across graded concentrations, often in twofold steps.)

Data set [2] deals with Aspergillus fumigatus ATCC 13073. Kind of data set: In vitro susceptibility, microdilution broth MIC, A. fumigatus. Type of data set: cell-based. As to conditions: ATCC13073, 48 h. As to the method: as §1
Data set [3] deals with Candida albicans ATCC 10259. Kind of data set: In vitro susceptibility, microdilution broth MIC, C. albicans ATCC 10259. In kind it is cell-based. The note with it: ATCC10259, 48 h. The method, then: as §1
Data set [4] deals with Candida albicans strain B311. Kind of data set: In vitro susceptibility, microdilution broth MIC, C. albicans B311. The note with it: Table 1a, Sabouraud's broth, 30° C., 48 h. In kind it is cell-based. The method, then:
as §1

Another data set deals with fungi. Kind of data set: In vitro susceptibility tests (MIC and MFC), overall statements. In kind it is cell-based. The note with it: Candida, Cryptococcus, Aspergillus, medically important fungi. As to the method: as §1
Data set [5] relates to Candida albicans ATCC 10259. As to the kind of experiment: Minimum fungicidal concentration (MFC), C. albicans ATCC 10259. Type of data set: cell-based. As to conditions: ATCC10259, 48 h, read-out: MIC (as headed), C. albicans 10259 (MFC). The method, then: as §1
Data set [6] has as its system Trichophyton rubrum ATCC 18762. As to the kind of experiment: In vitro susceptibility, microdilution broth MIC, T. rubrum. In kind it is cell-based. The note with it: ATCC18762, 120 h, Table 1a, Sabouraud's broth, 30° C., 5 days. The method, then: as §1
For data set [7] the following is noted: isolated from Aspilia mossambicesis and A. plurisetta; literature; cited from earlier work.
Data set [8] deals with Candida albicans strain B311. Kind of data set: Minimum fungicidal concentration (MFC), C. albicans B311. In kind it is cell-based. As to conditions: B311, 48 h, Table 1a, seventh value column, read-out: MIC (as headed), C. albicans B311 (MFC). The method, then:
as §1

A short description of data set [9]: Systemic toxicology test in ICR mice, intraperitoneal. In kind it is in vivo. As to conditions: mouse, in vivo, ip. As to the method:
(§2) Thiarubrine A and the novel 3,6-bis(hydroxymethyl)-1,2-dithiin have also been evaluated for their systemic toxicity potential. ICR mice, in groups of five or six each were injected with solutions of the test compound given intraperitoneally for three consecutive days for thiarubrine A and five consecutive days for the 1,2-dithiin. Animals were weighed daily and observed for mortalities over a 14 day period. An LD50 of 0.6 mg/kg for thiarubrine A was determined.

A further data set has as its system ICR mice. The data set is described as above. In kind it is in vivo. The note with it: three consecutive days. The method, then:
as §2

In data set [10] the test system is dermal irritation and erythema, ear of ICR mice. Kind of data set: Dermal toxicology (irritation) test in ICR mice. Type of data set: in vivo. The note with it: 10 mg topically. As to the method: Thiarubrine A and a new 1,2-dithiin compound 3,6-bis(hydroxymethyl)-1,2-dithiin were tested for the ability to elicit dermal irritation in ICR mice. Animals in groups of five each were lightly anesthetized, then the test substance, previously dissolved in aquaphor, was applied in the amount of 10 mg topically to the dorsal aspect of the right ear. Aquaphor without test substance was applied to the left ear as a control. Animals were inspected daily for five days for signs of dermal irritation and erythema, which was scored subjectively on a scale from 1 to 15, with 15 indicating severe toxicity.

The mark [11] stands for this setting: Table 1b, Sabouraud's broth, 30° C., read-out: MIC C. neoformans.
The mark [12] stands for this setting: Table 1b, Sabouraud's broth, 30° C., read-out: MIC A. fumigatus.
The mark [13] stands for this setting: Table 1b, Sabouraud's broth, 30° C., read-out: MIC C. albicans 10259.
Where [14] appears, read: Table 1a, Sabouraud's broth, 30° C., read-out: MIC C. neoformans.
Where [15] appears, read: Table 1a, Sabouraud's broth, 30° C., read-out: MIC A. fumigatus.
[16] abbreviates: Table 1a, Sabouraud's broth, 30° C., read-out: MIC C. albicans 10259.

≈ marks a conversion by molar mass, not a printed value. Read-outs that look alike come from different tables or passages of the source. Bounds are passed on as bounds.

Broadly, the MIC is the smallest concentration in the dilution series that meets the test's criterion for growth inhibition. In the case of `O=C(OCC1=CC=C(COC(=O)C2CC2)SS1)C1CC1` [Dithiin I, 3,6-Bis(cyolopropanecarbonyloxymethyl)-1,2-dithiin], the MIC in [1] (setting [11]) is 3.1 µg/mL (≈ 9.92 µM); in data set [2] (setting [12]) it was 1.6 µg/mL (≈ 5.12 µM); in [3] (setting [13]), 6.3 µg/mL (≈ 20.2 µM).
A word on the MFC: it is the lowest tested concentration that kills the fungus rather than only halting it. For the compound `OCC1=CC=C(CO)SS1` [Dithiin A, 3,6-Bis(hydroxymethyl)-1,2-dithiin], the MIC in data set [4] is 31 µg/mL (≈ 176 µM); in data set [1] (setting [14]), 2 µg/mL (≈ 11.3 µM); in data set [1] (setting [11]), 1.6 µg/mL (≈ 9.08 µM); in [6], 16 µg/mL (≈ 90.8 µM); in data set [2] (setting [15]) it was 16 µg/mL (≈ 90.8 µM); in [2] (setting [12]) it was 6.3 µg/mL (≈ 35.7 µM). Besides, the MIC was 16 µg/mL (≈ 90.8 µM) in data set [3] (setting [16]) and 25 µg/mL (≈ 142 µM) in [3] (setting [13]). Moreover, the “In vitro antifungal activity (in words)” value with fungi was “potent broad spectrum antifungal activity”. For the same compound, the MFC in data set [5] (Table 1a) was found to be 63 µg/mL (≈ 357 µM).
For the compound `CC(C)C(=O)OCC1=CC=C(COC(=O)C(C)C)SS1` [Dithiin H, 3,6-Bis(isobutyryloxymethyl)-1,2-Dithiin], the MIC in [1] (setting [11]), in data set [2] (setting [12]) and in [3] (setting [13]) was over 100 µg/mL each time.
Take `CC(=O)OCC1=CC=C(COC(C)=O)SS1` [Dithiin B, 3,6-Bis(acetyloxymethyl)-1,2-dithiin]: the MIC in data set [1] (setting [14]) was 0.8 µg/mL (≈ 3.07 µM); in data set [1] (setting [11]), 0.8 µg/mL (≈ 3.07 µM); in data set [2] (setting [15]) it was 0.4 µg/mL (≈ 1.54 µM); in [2] (setting [12]) it was 0.2 µg/mL (≈ 0.768 µM); in data set [3] (setting [16]), 3.1 µg/mL (≈ 11.9 µM); in data set [3] (setting [13]) it was 3.1 µg/mL (≈ 11.9 µM). Also, in data set [5] (Table 1a), the MFC was found to be 6.3 µg/mL (≈ 24.2 µM).
In the case of `CC1=CC=C(CO)SS1` [Dithiin C], the MIC in [3] (setting [16]) was 12.5 µg/mL (≈ 78 µM).
For the compound `C=CC#CC1=CC=C(C#CC#CC)SS1` [thiarubrine B], the “Biological activity (in words)” value in data set [7] was “wide spectrum of biological activity including antiviral and antibiotic activities”.
As to `O=CC1=CC=C(C=O)SS1` [Dithiin E, 3,6-Diformyl-1,2-dithiin], the MIC in data set [4] came to 8 µg/mL (≈ 46.4 µM); in data set [1] (setting [14]), 4 µg/mL (≈ 23.2 µM); in data set [6] it was 4 µg/mL (≈ 23.2 µM); in [2] (setting [15]), 8 µg/mL (≈ 46.4 µM); in data set [3] (setting [16]), 8 µg/mL (≈ 46.4 µM). Further, the MFC in data set [5] (Table 1a) and in data set [8] was 8 µg/mL (≈ 46.4 µM) throughout.
`O=C(OCC1=CC=C(CO)SS1)C1CC1` [Dithiin J]: the MIC in [1] (setting [11]) worked out at 1.6 µg/mL (≈ 6.55 µM); in [2] (setting [12]), 0.8 µg/mL (≈ 3.27 µM); in data set [3] (setting [13]), 3.1 µg/mL (≈ 12.7 µM).
What is called LD50 is the dose expected to kill half of the subjects tested. For `C=CC#CC#CC1=CC=C(C#CC)SS1` [Thia A, thiarubrine A], the “Biological activity (in words)” value in data set [7] is “wide spectrum of biological activity including antiviral and antibiotic activities”. The LD50 at 336 h in data set [9] (three consecutive days, 14 day observation, read-out: LD50) was 0.6 mg/kg; in data set [9] (total dose over three days, read-out: LD50, total dose), about 1.8 mg/kg. In addition, the “Systemic toxicity (in words)” value with ICR mice is given as “highly toxic”. For the same compound, the “Dermal irritation and erythema” value in data set [10] (five days) is on record as “pronounced toxicity”. The “Average score for dermal irritation, treated ear, Day 3” value in data set [10] (Day 3, scale 1 to 15) stood at 7. Besides, in data set [10] (Day 4, scale 1 to 15), the “Average score for dermal irritation, treated ear, Day 4” value worked out at 9. Further, in [10] (Day 5, scale 1 to 15, control ear 4), the “Average score for dermal irritation, treated ear, Day 5” value is listed as 9. Also, the “Average score for dermal irritation, treated ear, Day 2” value turned out to be 4 in [10] (first column pair of Table 2, headed Day 2, scale 1 to 15) and 6 in [10] (second column pair of Table 2, headed Day 2, scale 1 to 15). Also, the MIC in data set [1] (read-out: MIC C. neoformans, Table 1a, Sabouraud's broth, 30° C.) came to 0.61 µg/mL (≈ 2.67 µM); in data set [1] (read-out: MIC C. neoformans, Table 1b, Sabouraud's broth, 30° C.), 0.78 µg/mL (≈ 3.42 µM); in data set [2] (read-out: MIC A. fumigatus, Table 1a, Sabouraud's broth, 30° C.), 0.15 µg/mL (≈ 0.657 µM); in data set [2] (read-out: MIC A. fumigatus, Table 1b, Sabouraud's broth, 30° C.) it was 0.1 µg/mL (≈ 0.438 µM); in data set [3] (read-out: MIC C. albicans 10259, Table 1a, Sabouraud's broth, 30° C.), 0.15 µg/mL (≈ 0.657 µM); in data set [3] (read-out: MIC C. albicans 10259, Table 1b, Sabouraud's broth, 30° C.) it was 0.39 µg/mL (≈ 1.71 µM). For the same compound, the MFC in data set [5] amounted to 0.3 µg/mL (≈ 1.31 µM).
As for `COCOCC1=CC=C(COCOC)SS1` [Dithiin D], the MIC is 125 µg/mL (≈ 473 µM) in [4]; 8 µg/mL (≈ 30.3 µM) in data set [1] (setting [14]); 8 µg/mL (≈ 30.3 µM) in [6]; 63 µg/mL (≈ 238 µM) in [2] (setting [15]); 31 µg/mL (≈ 117 µM) in [3] (setting [16]). In addition, the MFC is over 250 µg/mL in data set [5] (Table 1a) and 125 µg/mL (≈ 473 µM) in data set [8].
With `CCC(=O)OCC1=CC=C(COC(=O)CC)SS1` [Dithiin G, 3,6-Bis(propionyloxymethyl)-1,2-dithiin], the MIC worked out at 6.3 µg/mL (≈ 21.8 µM) in data set [1] (setting [11]), 3.1 µg/mL (≈ 10.7 µM) in data set [2] (setting [12]) and 12.5 µg/mL (≈ 43.3 µM) in data set [3] (setting [13]).
